# Legend:
# Format in all cases: cell-based, human
# [1] = system: normal fibroblasts (GM08398) transiently expressing GFP-lamin A or GFP-progerin; test: Nuclear morphology and GFP localization in normal fibroblasts transiently expressing GFP-lamin A or GFP-progerin, exposed to FTI; settings: 100 nM FTI, 72 hours
# Description: (§1) FIG. 7 illustrates the effect of a 72 hour exposure to 100 nM FTI (PD169451) on GFP-lamin A (A) and GFP-progerin (B) localization, protein processing (C) and nuclear morphology (D and E). Confocal microscopy was used to examine the effects of FTIs on transiently-expressed GFP-lamin A (A) and GFP-progerin (B) in normal fibroblasts. Three focal planes are shown—top, middle and bottom (from left to right). Exposure to 100 nM FTI for 72 hours caused about half of the endogenous lamin A to be unprocessed pre-lamin A in normal and HGPS fibroblasts (C). Exposure to the FTI increased the percent of mock transfected cells and GFP-lamin A expressing cells with abnormal nuclear morphology (D). However, the percentage of cells expressing GFP-progerin with an abnormal nuclear morphology decreased by 33% when exposed to the FTI for 72 hours.
# GFP localization: Normal and HGPS fibroblasts were plated on coverslips in six well plates or in chambered microscope slides (BD Biosciences) 24 hours prior to transfection. Fibroblasts were transiently transfected with the GFP-lamin A or GFP-progerin expression constructs using FUGENE®6 transfection reagent (Roche). Seventy-two hours later the cells were washed two times with PBS (pH 7.2) and fixed for 20 minutes at 4° C. with 4% paraformaldehyde in PBS containing 62.5 µg/ml LPC palmitoyl and 1 U/ml rhodamine phalloidin (Molecular Probes) to stain the cytoskeleton. Following three washes with PBS, Prolong Gold mounting medium with DAPI (Molecular Probes) was applied to the coverslips which were then inverted and placed on microscope slides.
# Normal and HGPS fibroblasts were plated on coverslips in 6 well plates 24 hours prior to transfection. Normal fibroblasts were transiently transfected with the GFP-lamin A or GFP-progerin expression constructs using FUGENE®6 transfection reagent (Roche). The following day, the medium was replaced with growth medium containing 0 nM, 100 nM, 500 nM or […] of the FTI, PD169451. […]
# [2] = system: HGPS fibroblasts (AG11498, P01, HGADFN136, HGADFN004); test: Nuclear morphology of HGPS fibroblasts maintained in FTI
# Description: (§2) FIG. 10 illustrates the effect of long-term exposure to low doses of FTI (PD169451) on the nuclear morphology of normal (GM08398 and HGMDFN090) and HGPS (AG11498, P01, HGADFN136 and HGADFN004) fibroblasts. Fibroblasts were maintained in medium with 0 nM, 10 nM or 100 nM FTI. Cultures were plated in chambered microscope slides 24 hours prior to fixing with 4% paraformaldehyde for nuclear morphology studies. **—Too few cells to count. […] All cell lines were passage 6 at the beginning of the analysis except for HGADFN004, which was at passage 12.
# (§3) Normal and HGPS fibroblasts were maintained in T75 tissue culture flasks with 0 nM, 10 nM, and 100 nM concentrations of the FTI, PD169451, added to the growth medium. The medium was changed every 2 days and the cells were split when they were approximately 80% confluent. Three days prior to each time point, a flask was trypsinized and cells were placed in chambered microscope slides (BD Biosciences) and maintained in the appropriate FTI concentration. Seventy-two hours later the cells were washed two times with PBS (pH 7.2) and fixed for 20 minutes at 4° C. with 4% paraformaldehyde in PBS containing 62.5 µg/ml LPC palmitoyl and 1 U/ml rhodamine phalloidin (Molecular Probes) to stain the cytoskeleton. Following three washes with PBS, […] of ProLong Gold mounting medium with DAPI (Molecular Probes) was applied and the cells were overlaid with a coverslip.
# [3] = system: normal fibroblasts (GM08398 and HGMDFN090); test: Nuclear morphology of normal fibroblasts maintained in FTI
# Description: as §2, §3
# [4] = system: normal fibroblasts (GM08398) stably expressing GFP-lamin A, GFP-progerin and GFP-LA(L647R); test: Nuclear morphology and GFP localization in normal fibroblasts stably expressing GFP fusions (retroviral TET-OFF), exposed to FTI
# Description: FIG. 11 illustrates the effect of the FT1, PD169451, on the nuclear morphology of normal fibroblasts (GM08398) stably expressing GFP-lamin A, GFP-progerin and GFP-LA(L647R) using a retroviral TET-OFF® expression vector system (Clontech). Fibroblasts were maintained in medium with 0 nM, 10 nM or 100 nM FTI for 6 days.
# Cultures were plated in chambered microscope slides 24 hours prior to fixing with 4% paraformaldehyde for nuclear morphology studies. Cells were maintained in three predetermined tetracycline concentrations, 0 mM for full expression (A), 0.05 mM for intermediate expression levels (B), and 8 mM for very low expression levels (C). […] Analysis of nuclear morphology was performed in a double blinded fashion with at least 70 cells analyzed per sample.
# FIG. 12 illustrates the effect of FTI on the distribution of GFP signal in normal fibroblasts (GM08398) expressing GFP-lamin A (panels A, B and C), GFP-progerin (D, E and F) and GFP-LA(L647R) (G, H, and I) using a retroviral TET-OFF® expression vector system with various FTI concentrations. Fibroblasts were maintained in medium with 0 nM (A, D, G), 10 nM (B, E, and H) or 100 nM (C, F and I) FTI for six days. Expression levels of the GFP fusions were maintained at levels similar to endogenous levels of lamin A by the addition of 0.05 mg/ml tetracycline. Signals were visualized with a Zeiss AXIOPHOT™ Fluorescent microscope and imaging was performed using the Olympus DP70 Digital Camera System.
# Retroviral Constructs: The pRevTetOff vector and pRevTRE constructs were transfected using FUGENE®6 transfection reagent into the Amphotropic Phoenix retroviral packaging line (Peter Nolan, Stanford University). Forty-eight hours after transfection the media containing retrovirus was filtered through a 0.22 micron filter and used immediately or stored at −70° C. Retroviral infection was performed by exposing target cells to a 1:1 mix of retroviral supernatant and growth medium with 4 μg/ml polybrene.
# By way of example, GFP-lamin A and GFP-progerin were expressed from TET-OFF® retroviral expression vector constructs that allowed for sustained expression and modulation of expression to address the possibility of results due to over-expression of the fusion proteins when the proteins were transiently expressed. In addition, a cleavage minus mutant, GFP-LA(L647R), was included to examine the effect of retaining the farnesyl group without the 50 amino acid deletion found in progerin.
# endogenous lamin A = test: Lamin A processing (pre-lamin A) by immunoblot after FTI exposure; settings: 100 nM FTI, 72 hours; normal and HGPS fibroblasts
# Description: as §1
# Immunoblotting: Proteins were transferred to Immobilon-P membrane (Millipore) using a Trans-Blot semi-dry electrophoretic transfer cell (BioRad) blocked with 5% dry milk in TBST and probed with lamin A/C specific antibodies according to standard protocols.
# [5] = 10 nM FTI, 6 days, intermediate expression (0.05 mg/ml tetracycline), p<0.0001
compound,measurement,setting,value
CC(C)(CNC(=O)CN(Cc1ccc(OCc2ccccc2)cc1)C(=O)[C@H](Cc1cnc[nH]1)NC(=O)OCc1ccccc1)c1ccccc1 [PD169451],effect on the localization of transiently expressed GFP-lamin A and GFP-progerin,[1],significant effect
same,percent of mock transfected cells and GFP-lamin A expressing cells with abnormal nuclear morphology,[1],increased
same,decrease in the percentage of cells expressing GFP-progerin with an abnormal nuclear morphology,[1]; normal fibroblasts transiently expressing GFP-progerin,33%
same,percentage of abnormal nuclei in HGPS fibroblasts and in normal fibroblasts expressing GFP-progerin,[2]; 10 nM FTI,significantly lowered
same,drop in abnormal morphology,"[2]; 10 nM FTI, 14 days, HGPS cell line HGADFN004",12%
same,decrease in abnormal nuclei,"[2]; 10 nM FTI, 14 days, three HGPS lines each",≥ 70%
same,reduction in the percent of cells with abnormal nuclei,"[2]; 10 nM FTI, two days, four HGPS cell lines",~40%
same,growth of HGADFN004 line,"[2]; 100 nM FTI, 14 day time point",failed to grow
same,drop in the percent of cells with abnormal nuclear morphology,"[2]; AG11498 line, various FTI concentrations, three days",≤ 40%
same,FTI dose that caused cells to stop dividing after a week to 10 days,"[2]; long-term exposure, normal and HGPS fibroblasts",greater than 200 nM
same,nuclear morphology phenotype,[2]; normal fibroblasts expressing progerin and HGPS fibroblasts (summary of Example 3),significant improvement
same,"abnormal nuclear morphology in normal fibroblasts, dose dependence","[3]; 0, 10, 100 nM FTI",dose dependent manner
same,nuclear morphology of normal cells,[3]; 10 nM FTI,did not substantially alter
same,abnormal nuclear morphology in normal fibroblasts,"[3]; high doses of the FTI, greater than 200 nM",increase in abnormal nuclear morphology
same,"reduction of percent abnormal nuclei, GFP-LA(L647R)",[4]; [5],67%
same,"reduction of percent abnormal nuclei, GFP-progerin",[4]; [5],71%
same,reorganization of GFP signal for any of the fusion proteins,"[4]; 10 nM FTI, stable expression",did not lead to this drastic reorganization
same,effect on abnormal nuclear morphology at very high expression levels of GFP-progerin or GFP-LA(L647R),"[4]; 10 nM FTI, no tetracycline",could not overcome
same,localization of GFP-lamin A and GFP-progerin,"[4]; 100 nM FTI, stable expression",localize to intranuclear filaments
same,localization of GFP-tagged L647R mutant,"[4]; 100 nM FTI, stable expression",redistributed to intranuclear filaments
same,improvement in abnormal nuclear morphology at 100 nM in comparison to 10 nM,"[4]; 100 nM FTI, intermediate expression of GFP-progerin and GFP-LA(L647R)",less profound
same,endogenous lamin A present as unprocessed pre-lamin A,endogenous lamin A,about half
